PubChem BioAssay AID1361 (SRMLSC, 2008)
Calls of active or inactive are those of the source. The rule behind the calls is not given here.

Assay: blockers of mitochondrial fusion, WT vs mutant – cell-based, chemical genetic, wild-type and mutant, confirmation (AID 1361)
Settings: Cell-based mitochondrial fusion phenotype, imaging
[1] = mutant cells, measured here: mutant cell line IC50

Structure (SMILES) | IC50 (WT cells) | IC50 [1]
Cc1ccc(-c2csc3ncnc(N4CCc5ccccc5C4)c23)cc1 | 9.52 µM | > 25 µM
C=CCNC1=C(Cl)C(=O)N(c2cccc(Cl)c2Cl)C1=O | > 25 µM (inactive) | > 25 µM
O=C(CS(=O)(=O)Cc1ccccc1)Nc1cccnc1 | > 25 µM (inactive) | > 25 µM
COc1ccc(NC(=O)c2ccc(-c3ccccc3C(F)(F)F)o2)cc1 | 16.4 µM | 21.7 µM
Cc1ccc(C2=CC(C)(c3ccc(C)cc3)Nc3nc(C(F)(F)F)nn32)cc1 (stereo unspecified) | 7.63 µM | > 25 µM
COc1ccccc1/C=C/C=N\N1CCN(Cc2ccccc2Cl)CC1 | 20.9 µM | > 25 µM
N#CCCN(CCC#N)c1nnc(-c2ccccc2)s1 | > 25 µM (inactive) | > 25 µM
CCCOP(=O)(OCCC)C(Nc1ccc(C(C)C)cc1)c1ccc([N+](=O)[O-])cc1 (stereo unspecified) | 13.1 µM | > 25 µM

The remaining lines, values ahead:

IC50 (WT cells) | IC50 [1] | Structure (SMILES)
8.09 µM | > 25 µM | COCCn1c(SCc2cc(C(C)=O)ccc2OC)nc2cc(Cl)ccc2c1=O
> 25 µM (inactive) | > 25 µM | CCN(CC)c1ccc(NC(=O)Nc2ccccc2C(F)(F)F)cc1
> 25 µM (inactive) | > 25 µM | CCC(C)c1ccc(NC(=S)Nc2ccc(OC)c(OC)c2)cc1 (stereo unspecified)
11.6 µM | > 25 µM | CCN(CC)c1ccc(/C=N/NC(=S)NCc2ccco2)cc1
4.68 µM | 6.34 µM | Cc1cc(C)cc(NC(=S)NCCSc2ccc(Cl)cc2)c1
